Results reported in patent publication US20110287953A1, “METHOD FOR DISCOVERING POTENTIAL DRUGS” (priority 2010, published 2011).
Read-outs that look alike come from different tables or passages of the source.

Assays:
[1] = system: HCC cell lines, Mahlavu, PLC5, HepG2, and Huh7; experiment: MTT cell viability test in HCC cell lines
Procedure: (§1) The HCC cell lines, Mahlavu, PLC5, HepG2, and Huh7, were cultured in Dulbecco's Modified Eagle Medium (DMEM; Seromed, Berlin, Germany) supplemented with 10% heat-inactivated fetal bovine serum, 100 μg/ml streptomycin, 100 μg/ml penicillin, and 2 mM L-glutamine in a humidified atmosphere containing 5% CO2 at 37° C. […] The cells were exposed to different concentrations of the small molecules for 72 hours. Control cells were incubated in the absence of small molecules. Afterwards, the cells were incubated with medium containing MTT for 2 hours. […] For the clonogenic assay, Huh7 cells were seeded out in appropriate dilutions in a 6-well plate and treated with selected small molecules at various concentrations for 15 days. Colonies were fixed with glutaraldehyde (6.0% v/v), stained with crystal violet (0.5% w/v), and counted.

Huh7 cells = experiment: Clonogenic assay; type: cell-based; details: for Clonogenic assay / inhibition at 10 µM: colony number at 10 μM; for inhibition at 10 µM: Homo sapiens, Huh-7, 360 h
Procedure: The HCC cell lines, Mahlavu, PLC5, HepG2, and Huh7, were cultured in Dulbecco's Modified Eagle Medium (DMEM; Seromed, Berlin, Germany) supplemented with 10% heat-inactivated fetal bovine serum, 100 μg/ml streptomycin, 100 μg/ml penicillin, and 2 mM L-glutamine in a humidified atmosphere containing 5% CO2 at 37° C. The viability of the exposed cells was determined using the MTT cell viability assay kit (Sigma-Aldrich, St. Louis, USA), according to the manufacturer's instructions. […] The cells were exposed to different concentrations of the small molecules for 72 hours. Control cells were incubated in the absence of small molecules. Afterwards, the cells were incubated with medium containing MTT for 2 hours. The optical density at 450 nm was measured using a microplate reader (Spectral Max250). For the clonogenic assay, Huh7 cells were seeded out in appropriate dilutions in a 6-well plate and treated with selected small molecules at various concentrations for 15 days. Colonies were fixed with glutaraldehyde (6.0% v/v), stained with crystal violet (0.5% w/v), and counted.

HCC cell lines = experiment: Drug efficacy label of top 10 CMap drugs (MTT or clonogenic); type: cell-based; details: Table 2-3; labels (1) and (4); gene set in which the drug ranked top 10;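 also: label 1 means effective by MTT or clonogenic assay and 4 means ineffective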
Procedure: as §1

[2] = Table 3-1, HCC cell lines, 72 hours, MTT
[3] = 72 h, Table 2-2, HCC cell lines, MTT
[4] = 72 h, Table 3-1, HCC cell lines, MTT

O=C(O)CNC(=O)C(CS)Cc1ccccc1 (racemic) [DL-thiorphan]
IC50 [1, 2]: > 10 µM | Clonogenic assay (Huh7 cells; Table 3-1, 15 days): Ineffective

Nc1nc2nn[nH]c2c(=O)[nH]1 [8-azaguanine]
IC50 [1, 3]: > 10 µM | IC50 [1, 4]: > 10 µM | Clonogenic assay (Huh7 cells; Table 2-2, 15 days): Ineffective | Clonogenic assay (Huh7 cells; Table 3-1, 15 days): Ineffective | drug efficacy label (HCC cell lines): 8-azaguanine (4)

C[C@]12CC[C@@H]3c4ccc(O)cc4CC[C@H]3[C@@H]1CC[C@H]2O [Alpha-estradiol]
IC50 [1, 3]: > 10 µM | Clonogenic assay (Huh7 cells; Table 2-2, 15 days): Ineffective | drug efficacy label (HCC cell lines): Alpha-estradiol (4)

COc1ccccc1N1CCN(CCCCNC(=O)c2ccc3ccccc3c2)CC1.Cl.Cl [DO 897/99]
IC50 [1, 2]: > 10 µM | Clonogenic assay (Huh7 cells; Table 3-1, 15 days): Effective (Effectiveness in clonogenic assay is defined as reducing more than 50% colony number at 10 μM)

O=C1Nc2ccc3ncsc3c2/C1=C/Nc1ccc(S(=O)(=O)Nc2ccccn2)cc1 [GW-8510]
IC50 [1, 2]: 5 to 10 µM

CC(=O)[C@H]1CC[C@H]2[C@@H]3C[C@H](C)C4=CC(=O)CC[C@]4(C)[C@H]3[C@@H](O)C[C@]12C [Medrysone]
IC50 [1, 3]: > 10 µM | Clonogenic assay (Huh7 cells; Table 2-2, 15 days): Ineffective | drug efficacy label (HCC cell lines): medrysone (4)

CCOc1cc(CC(=O)N[C@@H](CC(C)C)c2ccccc2N2CCCCC2)ccc1C(=O)O [Repaglinide]
IC50 [1, 3]: > 10 µM | Clonogenic assay (Huh7 cells; Table 2-2, 15 days): Ineffective | drug efficacy label (HCC cell lines): repaglinide (4)

CCCCC(CC)CNC(=N)NC(=N)NCCCCCCNC(=N)NC(=N)NCC(CC)CCCC (centres unmarked) [alexidine]
IC50 [1, 4]: 0.1 to 1 µM

O=c1cc(-c2ccc(O)cc2)oc2cc(O)cc(O)c12 [apigenin]
IC50 [1, 3]: > 10 µM | IC50 [1, 4]: > 10 µM | growth / survival of Huh7 cells (Huh7 cells): inhibited the growth of Huh7 cells | inhibition at 10 µM (Huh7 cells; Table 3-1, 15 days): > 50% | Clonogenic assay (Huh7 cells; Table 2-2, 15 days): Effective (Effectiveness in clonogenic assay is defined as reducing more than 50% colony number at 10 μM) | drug efficacy label (HCC cell lines): apigenin (1)

Nc1ncn([C@@H]2O[C@H](CO)[C@@H](O)[C@H]2O)c(=O)n1 [azacitidine]
IC50 [1, 4]: > 10 µM | inhibition at 10 µM (Huh7 cells; Table 3-1, 15 days): > 50%

CC(C)COCC(CN(Cc1ccccc1)c1ccccc1)N1CCCC1 (centres unmarked) [bepridil]
IC50 [1, 4]: 5 to 10 µM

CC[C@@]1(O)C(=O)OCc2c1cc1n(c2=O)Cc2cc3ccccc3nc2-1 [camptothecin]
IC50 [1, 4]: 0.1 to 1 µM

CN(C)CCCN1c2ccccc2Sc2ccc(Cl)cc21 [chlorpromazine]
IC50 [1, 3]: > 10 µM | IC50 [1, 4]: 5 to 10 µM | inhibition at 10 µM (Huh7 cells; Table 3-1, 15 days): > 50% | Clonogenic assay (Huh7 cells; Table 2-2, 15 days): Effective (Effectiveness in clonogenic assay is defined as reducing more than 50% colony number at 10 μM) | drug efficacy label (HCC cell lines): chlorpromazine (1)

O=c1cc(-c2ccccc2)oc2cc(O)cc(O)c12 [chrysin]
IC50 [1, 4]: > 10 µM

Cc1cc(C2CCCCC2)n(O)c(=O)c1 [ciclopirox]
IC50 [1, 4]: 5 to 10 µM

Oc1c(I)cc(Cl)c2cccnc12 [clioquinol]
IC50 [1, 4]: 5 to 10 µM

Clc1ccc(C(OCCN2CCCCC2)c2ccccc2)cc1 (centres unmarked) [cloperastine]
IC50 [1, 4]: > 10 µM | inhibition at 10 µM (Huh7 cells; Table 3-1, 15 days): > 50% | drug efficacy label (HCC cell lines): cloperastine (4)

N[C@@H]1CON=C1O [cycloserine]
IC50 [1, 4]: > 10 µM | Clonogenic assay (Huh7 cells; Table 3-1, 15 days): Ineffective

COc1ccc([C@@H]2Sc3ccccc3N(CCN(C)C)C(=O)[C@@H]2OC(C)=O)cc1 [diltiazem]
IC50 [1, 4]: > 10 µM

OCCN(CCO)c1nc(N2CCCCC2)c2nc(N(CCO)CCO)nc(N3CCCCC3)c2n1 [dipyridamole]
IC50 [1, 3]: > 10 µM | IC50 [1, 4]: > 10 µM | inhibition at 10 µM (Huh7 cells; Table 3-1, 15 days): > 50% | Clonogenic assay (Huh7 cells; Table 2-2, 15 days): Effective (Effectiveness in clonogenic assay is defined as reducing more than 50% colony number at 10 μM)

Cc1c2ccncc2c(C)c2c1[nH]c1ccccc12 [ellipticine]
IC50 [1, 4]: 0.1 to 1 µM

CC[C@H]1CN2CCc3cc(OC)c(OC)cc3[C@@H]2C[C@@H]1C[C@H]1NCCc2cc(OC)c(OC)cc21 [emetine]
IC50 [1, 4]: 0.1 to 1 µM

C[C@]12CC[C@@H]3c4ccc(O)cc4CC[C@H]3[C@@H]1C[C@@H](O)[C@@H]2O [estriol]
IC50 [1, 4]: > 10 µM

CC1CC(OC(=O)C(O)c2ccccc2)CC(C)(C)N1C (centres unmarked) [eucatropine]
IC50 [1, 4]: > 10 µM

COc1c2ccoc2nc2c(OC)c(OCC(O)C(C)(C)O)ccc12 (centres unmarked) [evoxine]
IC50 [1, 4]: > 10 µM | Clonogenic assay (Huh7 cells; Table 3-1, 15 days): Ineffective

CC(C(=O)O)c1cccc(Oc2ccccc2)c1 (centres unmarked) [fenoprofen]
IC50 [1, 4]: > 10 µM

C[C@@H]1C(=O)O[C@H]2C[C@@]34[C@H]5C[C@@H](C(C)(C)C)[C@]36[C@@H](OC(=O)[C@@H]6O)O[C@@]4(C(=O)O5)[C@]21O [ginkgolide A]
IC50 [1, 2]: > 10 µM

Cc1ccc(S(=O)(=O)NC(=O)NN2CC3CCCC3C2)cc1 (centres unmarked) [gliclazide]
IC50 [1, 4]: > 10 µM | Clonogenic assay (Huh7 cells; Table 3-1, 15 days): Ineffective

CC[C@H](c1ccc(O)cc1)[C@@H](CC)c1ccc(O)cc1 [hexestrol]
IC50 [1, 4]: > 10 µM | Clonogenic assay (Huh7 cells; Table 3-1, 15 days): Ineffective | drug efficacy label (HCC cell lines): hexestrol (4)

CC1=CC(=O)C2=C(C)CC[C@@H]3[C@H](OC(=O)[C@H]3C)[C@@H]12 [leucomisine]
IC50 [1, 2]: > 10 µM | Clonogenic assay (Huh7 cells; Table 3-1, 15 days): Ineffective

C#C[C@]1(O)CC[C@H]2[C@@H]3CCC4=CC(=O)CC[C@@H]4[C@H]3CC[C@@]21CC [levonorgestrel]
IC50 [1, 4]: > 10 µM

OC(c1cc(C(F)(F)F)nc2c(C(F)(F)F)cccc12)C1CCCCN1 (centres unmarked) [mefloquine]
IC50 [1, 4]: 1 to 5 µM

Cc1cc2c(cc1S(N)(=O)=O)S(=O)(=O)CCC2 [meticrane]
IC50 [1, 4]: > 10 µM | Clonogenic assay (Huh7 cells; Table 3-1, 15 days): Ineffective

O=C1c2c(O)ccc(O)c2C(=O)c2c(NCCNCCO)ccc(NCCNCCO)c21 [mitoxantrone]
IC50 [1, 4]: 0.1 to 1 µM

Cc1ccsc1/C=C/C1=NCCCN1C [morantel]
IC50 ([1]; 72 h): > 10 µM

C#CCN(C)Cc1ccccc1 [pargyline]
IC50 [1, 4]: > 10 µM

O=C(O)c1ccccc1C(=O)Nc1ccc(S(=O)(=O)Nc2nccs2)cc1 [phthalylsulfathiazole]
IC50 [1, 4]: > 10 µM | Clonogenic assay (Huh7 cells; Table 3-1, 15 days): Ineffective

COc1cc(/C=C/C(=O)N2CCC=CC2=O)cc(OC)c1OC [piperlongumine]
IC50 [1]: 1 to 5 µM

CCN(CC)CCOC(=O)c1ccc(N)cc1 [procaine]
IC50 [1, 4]: > 10 µM

CCCNCC(O)COc1ccccc1C(=O)CCc1ccccc1 (centres unmarked) [propafenone]
IC50 [1, 4]: > 10 µM | inhibition at 10 µM (Huh7 cells; Table 3-1, 15 days): > 50%

Oc1ccc(C=Cc2cc(O)cc(O)c2)cc1 [resveratrol]
drug efficacy label (HCC cell lines): resveratrol (4)

Cn1c([N+](=O)[O-])cnc1COC(N)=O [ronidazole]
IC50 [1, 4]: > 10 µM

C=C(C)[C@H]1Cc2c(ccc3c2O[C@@H]2COc4cc(OC)c(OC)cc4[C@@H]2C3=O)O1 [rotenone]
IC50 [1, 4]: 0.1 to 1 µM

CC[C@H]1OC(=O)[C@H](C)[C@@H](O[C@H]2C[C@@](C)(OC)[C@@H](O)[C@H](C)O2)[C@H](C)[C@@H](O[C@@H]2O[C@H](C)C[C@H](N(C)C)[C@H]2O)[C@](C)(O)C[C@@H](C)/C(=N\OCOCCOC)[C@H](C)[C@@H](O)[C@]1(C)O [roxithromycin]
IC50 [1, 4]: > 10 µM

C[n+]1cc2c3c(ccc2c2ccc4cc5c(cc4c21)OCO5)OCO3 [sanguinarine]
IC50 ([1]; 72 h): 0.1 to 1 µM

COc1ccc2c(OC)c3ccoc3nc2c1OC [skimmianine]
IC50 [1, 4]: > 10 µM | inhibition at 10 µM (Huh7 cells; Table 3-1, 15 days): > 50%

O=C(CCCN1CCC2(CC1)C(=O)NCN2c1ccccc1)c1ccc(F)cc1 [spiperone]
inhibition at 10 µM (Huh7 cells; Table 3-1, 15 days): > 50%

Clc1ccc(CSC(Cn2ccnc2)c2ccc(Cl)cc2Cl)cc1 (centres unmarked) [sulconazole]
inhibition at 10 µM (Huh7 cells; Table 3-1, 15 days): > 50% | Clonogenic assay (Huh7 cells; Table 2-2, 15 days): Effective (Effectiveness in clonogenic assay is defined as reducing more than 50% colony number at 10 μM)

COc1cnc(NS(=O)(=O)c2ccc(N)cc2)nc1 [sulfametoxydiazine]
IC50 [1, 4]: > 10 µM

C=CCNC1=C2C[C@@H](C)C[C@H](OC)[C@H](O)[C@@H](C)/C=C(\C)[C@H](OC(N)=O)[C@@H](OC)/C=C\C=C(/C)C(=O)NC(=CC1=O)C2=O [tanespimycin]
cell viability / cytotoxicity in HCC cell lines ([1]; 0.1, 1 and 10 μM, 72 hours, MTT): exhibited cytotoxicity effect | IC50 [1, 3]: < 0.1 µM | IC50 [1, 4]: < 0.1 µM | IC50 ([1]; 72 h, HCC cell lines): < 10 µM | drug efficacy label (HCC cell lines): tanespimycin (1)

CSc1ccc2c(c1)N(CCC1CCCCN1C)c1ccccc1S2 (centres unmarked) [thioridazine]
drug efficacy label (HCC cell lines): thioridazine (1)

C=C(NC(=O)C(=C)NC(=O)c1csc(C2=N[C@@H]3c4csc(n4)[C@H]4NC(=O)c5csc(n5)[C@H]([C@](C)(O)[C@@H](C)O)NC(=O)[C@H]5CSC(=N5)/C(=C/C)NC(=O)[C@H]([C@@H](C)O)NC(=O)c5csc(n5)[C@]3(CC2)NC(=O)[C@H](C)NC(=O)C(=C)NC(=O)[C@H](C)NC(=O)[C@H]([C@@H](C)CC)N[C@@H]2C=Cc3c([C@H](C)O)cc(nc3[C@H]2O)C(=O)O[C@@H]4C)n1)C(N)=O [thiostrepton]
IC50 [1, 4]: 1 to 5 µM

CC(=O)Oc1cc(C(F)(F)F)ccc1C(=O)O [triflusal]
IC50 [1, 3]: > 10 µM | IC50 [1, 4]: > 10 µM | Clonogenic assay (Huh7 cells; Table 2-2, 15 days): Ineffective | Clonogenic assay (Huh7 cells; Table 3-1, 15 days): Ineffective

Cc1cc2cc3c(C)cc(=O)oc3c(C)c2o1 [trioxysalen]
IC50 [1, 4]: > 10 µM | inhibition at 10 µM (Huh7 cells; Table 3-1, 15 days): > 50%

CC1=C(CO)C(=O)O[C@@H]([C@@H](C)[C@H]2CC[C@H]3[C@@H]4C[C@H]5O[C@]56[C@@H](O)C=CC(=O)[C@]6(C)[C@H]4CC[C@]23C)C1 [withaferin A]
IC50 [1, 2]: 0.1 to 1 µM

CN(C)C/C=C(/c1ccc(Br)cc1)c1cccnc1 [zimeldine]
IC50 [1, 4]: > 10 µM | Clonogenic assay (Huh7 cells; Table 3-1, 15 days): Ineffective

tyloxapol
IC50 [1, 2]: 5 to 10 µM
